Test results published in patent publication US8501802B2, “Co-crystals of duloxetine and COX-INHIBITORs for the treatment of pain” (Laboratorios del Dr. Esteve, S.A., priority 2008, dated 2013).
Structures can show the parent of a compound that is named as a salt.

Conditions: for Δ % weight 24 h / Δ % weight 48 h / Δ % weight 6 days: 64±5% relative humidity, 22±2° C.; for KF (t = 0): Karl Fischer value at the beginning of the study; for Hygroscopicity class according to the scale: PharmaEuropa scale of % incorporation of water
Experimental: The objective was to measure the hygroscopicity of the salts of the present invention, and comparing it with the one of the known salt of each counter part of the salts. The increasing of the weight will be measured in order to evaluate the incorporation of water in the samples, together with the Karl Fischer factor.
The scale is the following:
Preparation of the Humidity chamber: A supersaturated solution of sodium nitrite (45 g/50 ml) is prepared and introduced in a humidification chamber (samplaterecord). The chamber is maintained at a temperature of 22±2° C. during 24 hours before use, and humidity is controlled each day.
The variation of the weight is controlled and the following percentage is calculated: Δ%weight=(Pn−P1)/P1×100 wherein: P1 is the initial weight, Pn is the weight measured for the sample.

| Compound | Δ % weight 24 h [%] | Δ % weight 48 h [%] | Δ % weight 6 days [%] | KF (t = 0) | Hygroscopicity class according to the scale |
| --- | --- | --- | --- | --- | --- |
| CNCC[C@H](Oc1cccc2ccccc12)c1cccs1.CNCC[C@H](Oc1cccc2ccccc12)c1cccs1.COc1ccc2cc([C@H](C)C(=O)O)ccc2c1.COc1ccc2cc([C@H](C)C(=O)O)ccc2c1.COc1ccc2cc([C@H](C)C(=O)O)ccc2c1 | 0 | 0.09 | 0.13 | 0.36 | not hygroscopic |
| CNCC[C@H](Oc1cccc2ccccc12)c1cccs1 [Duloxetine HCl] | 0.19 | 0.26 | 0.18 | 0.33 | not hygroscopic |
| COc1ccc2cc([C@H](C)C(=O)[O-])ccc2c1.[Na+] [sodium naproxen] | 14.39 | 14.39 | 14.3 | 1.04 | hygroscopic |
